In patent US20230250096A1, “SUBSTITUTED PHENYL-1H-PYRROLO[2,3-c] PYRIDINE DERIVATIVES” (Janssen Pharmaceutica NV, priority 2021, published 2023):
pIC50: −log10 of the molar value.

What was measured:
[1] = tested on: MEIS1 mRNA expression; assay: MEIS1 mRNA expression assay (Quantigene Singleplex) in MOLM14 cells; type: cell-based, human; settings: Homo sapiens, MOLM-14, 48 h, 48 hours incubation
How it was run: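 MOLM14 cells, 3,750/well, exposed to increasing compound concentrations for 48 h. MEIS1 mRNA measured by QuantiGene Singleplex branched-DNA hybridization (lysis 45 min, hybridization 18–22 h, both 55 °C), normalized to RPL28. IC50 fitted to background-corrected fold change versus DMSO.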

[2] = molecular target: T1, menin/MLL (terbium chelate-labeled menin, FITC-MBM1 peptide) (Homo sapiens, UniProt O00255, T541A); assay: Menin/MLL homogenous time-resolved fluorescence (HTRF) assay; type: binding; settings: 30 min incubation
T1 construct: Menin (a.a 1-610-6xhis tag, 2.3 mg/mL in 20 mM Hepes)
T1 sequence (O00255 with tags, fused parts or gaps T541A): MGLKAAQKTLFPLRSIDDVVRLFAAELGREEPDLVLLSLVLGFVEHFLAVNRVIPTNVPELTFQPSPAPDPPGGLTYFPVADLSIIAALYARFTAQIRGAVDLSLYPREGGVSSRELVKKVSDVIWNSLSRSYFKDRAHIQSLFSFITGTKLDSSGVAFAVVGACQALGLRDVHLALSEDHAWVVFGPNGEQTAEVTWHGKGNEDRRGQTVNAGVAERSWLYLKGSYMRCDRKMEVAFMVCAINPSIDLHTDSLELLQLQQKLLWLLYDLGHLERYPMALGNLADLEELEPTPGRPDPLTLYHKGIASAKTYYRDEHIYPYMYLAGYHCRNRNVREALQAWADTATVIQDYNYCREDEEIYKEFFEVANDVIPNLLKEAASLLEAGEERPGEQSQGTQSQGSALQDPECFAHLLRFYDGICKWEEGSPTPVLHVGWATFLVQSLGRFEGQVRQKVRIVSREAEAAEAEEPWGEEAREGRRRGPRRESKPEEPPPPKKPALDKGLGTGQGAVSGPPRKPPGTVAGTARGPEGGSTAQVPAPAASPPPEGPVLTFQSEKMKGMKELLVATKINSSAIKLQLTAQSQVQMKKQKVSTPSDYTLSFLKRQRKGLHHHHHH
How it was run: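 Terbium-labeled menin (a.a. 1-610, His-tagged; […]) pre-incubated 30 min with compound, then 75 nM FITC-MBM1 peptide added for 15 min at ambient temperature in Tris pH 7.5 buffer, 0.5% DMSO. HTRF 520/490 nm ratio read; IC50 from 11-point four-fold titrations, typically from 10 μM.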

| SMILES | pIC50 [1] | pIC50 [2] |
| --- | --- | --- |
| Cc1cncc2c1c(CC1CN(CC3(C)COC3)C1)cn2-c1ccc(F)cc1C(=O)N(C)C(C)C [Compound 286] | 7.23 | 10.34 |
| Cc1cncc2c1c(CC1CN(C3CCCNC(=O)C3)C1)cn2-c1ccc(F)cc1C(=O)N(C)C(C)C (centres unmarked) [Compound 290] | 6.77 | 9.41 |
| Cc1cncc2c1c(CC1CN(C3CCCN(C)C(=O)C3)C1)cn2-c1ccc(F)cc1C(=O)N(C)C(C)C (centres unmarked) [Compound 291] | 6.33 | 9.23 |
| CC(=O)N1CCCCC1C1(CN2CC(Cc3cn(-c4ccc(F)cc4C(=O)N(C)C(C)C)c4cncc(C)c34)C2)CC1 (centres unmarked) [Compound 297] | < 6.00 | 9.32 |
| CC(=O)N1CCC(C2(CN3CC(Cc4cn(-c5ccc(F)cc5C(=O)N(C)C(C)C)c5cncc(C)c45)C3)CC2)CC1 [Compound 298] | 6.75 | 10.08 |
| CC(=O)N1CC2CC(CN3CC(Cc4cn(-c5ccc(F)cc5C(=O)N(C)C(C)C)c5cncc(C)c45)C3)CC(C2)C1 (centres unmarked) [Compound 300] | 7.26 | 9.94 |
| CC(=O)N1[C@H](C)CC(N2CC(Cc3cn(-c4ccc(F)cc4C(=O)N(C)C(C)C)c4cncc(C)c34)C2)C[C@@H]1C (some centres unmarked) [Compound 301] | 6.84 | 9.72 |
| CC(=O)N1CCC2(CCCC(N3CC(Cc4cn(-c5ccc(F)cc5C(=O)N(C)C(C)C)c5cncc(C)c45)C3)C2)C1 (centres unmarked) [Compound 303] | ~7.11 | 9.75 |
| CC(=O)N1CC2CC1C2C(C)N1CC(Cc2cn(-c3ccc(F)cc3C(=O)N(C)C(C)C)c3cncc(C)c23)C1 (centres unmarked) [Compound 304] | < 6.00 | 8.55 |
| CC(=O)N1CC2CCC(N3CC(Cc4cn(-c5ccc(F)cc5C(=O)N(C)C(C)C)c5cncc(C)c45)C3)C2C1 (centres unmarked) [Compound 306] | 6.80 | 9.33 |
| Cc1noc(CN2CC(Cc3cn(-c4ccc(F)cc4C(=O)N(C)C(C)C)c4cncc(C)c34)C2)n1 [Compound 308] | < 6.00 | 7.22 |
| Cc1cncc2c1c(C[C@@H]1CCN(CC3CCN(C(=O)C(C)C)CC3)C1)cn2-c1ccc(F)cc1C(=O)N(CCO)C(C)C [Compound 329] | 7.89 | 9.82 |
| COC(=O)N1CCC(CN2CC[C@@H](Cc3cn(-c4ccc(F)cc4C(=O)N(CCO)C(C)C)c4cncc(C)c34)C2)CC1 [Compound 334] | 7.92 | 9.65 |
| CC(=O)N1CCC(C)(CN2CC[C@@H](Cc3cn(-c4ccc(F)cc4C(=O)N(CCO)C(C)C)c4cncc(C)c34)C2)CC1 [Compound 337] | 7.62 | 10.04 |
| CC(=O)N1CCC(C)(CN2CC[C@@H](Cc3cn(-c4ccc(F)cc4C(=O)N(C[C@H](C)O)C(C)C)c4cncc(C)c34)C2)CC1 [Compound 338] | 7.43 | 9.73 |
| CC(=O)N1CCC(C)(CN2CC[C@@H](Cc3cn(-c4ccc(F)cc4C(=O)N(C[C@@H](C)O)C(C)C)c4cncc(C)c34)C2)CC1 [Compound 339] | 7.17 | 9.71 |
| Cc1cncc2c1c(C[C@@H]1CCN(CC3CCN(C(=O)C(C)(C)O)CC3)C1)cn2-c1ccc(F)cc1C(=O)N1CCCC12CC2 [Compound 340] | < 6.00 | 10.47 |
| Cc1cncc2c1c(C[C@@H]1CCN(CC3CCN(C(=O)C(C)(C)O)CC3)C1)cn2-c1ccc(F)cc1C(=O)N1[C@H](C)CC[C@H]1C [Compound 343] | 7.89 | 10.35 |
| Cc1cncc2c1c(C[C@@H]1CCN(CC3CCN(C(=O)C(C)(C)O)CC3)C1)cn2-c1ccc(F)cc1C(=O)N1CC2CC1CO2 (some centres unmarked) [Compound 345] | 7.44 | 9.69 |
| CC(=O)N1CC2CC(CN3CC[C@@H](Cc4cn(-c5ccc(F)cc5C(=O)N(CC(C)O)C(C)C)c5cncc(C)c45)C3)CC(C2)C1 (some centres unmarked) [Compound 350] | ~6.00 | 9.23 |
| CC(=O)N1CCC(CN2CC[C@@H](Cc3cn(-c4ccc(F)cc4C(=O)N4[C@H](C)CC[C@H]4C)c4cncc(C)c34)C2)CC1 [Compound 354] | 7.74 | 10.40 |

Results, then the molecule that gave them:

| pIC50 [1] | pIC50 [2] | SMILES |
| --- | --- | --- |
| ~5.63 | 8.38 | Cc1ccc(CN2CC(Cc3cn(-c4ccc(F)cc4C(=O)N(C)C(C)C)c4cncc(C)c34)C2)nn1 [Compound 284] |
| ~5.88 | 8.83 | Cc1cc(CN2CC(Cc3cn(-c4ccc(F)cc4C(=O)N(C)C(C)C)c4cncc(C)c34)C2)[nH]n1 [Compound 285] |
| 7.59 | 10.47 | Cc1cncc2c1c(CC1CN(CC3CCOC3)C1)cn2-c1ccc(F)cc1C(=O)N(C)C(C)C (centres unmarked) [Compound 287] |
| 7.37 | 10.23 | Cc1cncc2c1c(CC1CN(CC3CCCO3)C1)cn2-c1ccc(F)cc1C(=O)N(C)C(C)C (centres unmarked) [Compound 288] |
| 7.51 | 10.26 | Cc1cncc2c1c(CC1CN(CC3CCCOC3)C1)cn2-c1ccc(F)cc1C(=O)N(C)C(C)C (centres unmarked) [Compound 289] |
| 6.47 | 9.77 | CC(=O)N1CCCC(N2CC(Cc3cn(-c4ccc(F)cc4C(=O)N(C)C(C)C)c4cncc(C)c34)C2)CC1 (centres unmarked) [Compound 295] |
| 6.26 | 9.47 | CC(=O)N1CCC2(CCC2N2CC(Cc3cn(-c4ccc(F)cc4C(=O)N(C)C(C)C)c4cncc(C)c34)C2)CC1 (centres unmarked) [Compound 296] |
| 7.11 | 10.30 | CC(=O)N1[C@@H](C)CC(N2CC(Cc3cn(-c4ccc(F)cc4C(=O)N(C)C(C)C)c4cncc(C)c34)C2)C[C@@H]1C (some centres unmarked) [Compound 302] |
| ~6.53 | 9.84 | CC(=O)N1CC2C(CN3CC(Cc4cn(-c5ccc(F)cc5C(=O)N(C)C(C)C)c5cncc(C)c45)C3)C2C1 (centres unmarked) [Compound 305] |
| 7.32 | 10.36 | Cc1cncc2c1c(CC1CN(CC3(O)CCOCC3)C1)cn2-c1ccc(F)cc1C(=O)N(C)C(C)C [Compound 307] |
| 6.45 | 9.92 | CC(=O)N1CCC(CN2CC[C@@H](Cc3cn(-c4ccc(F)cc4C(=O)N4CCC45CCC5)c4cncc(C)c34)C2)CC1 [Compound 310] |
| 7.19 | 9.54 | CC(=O)N1CCC(CN2CC[C@@H](Cc3cn(-c4ccc(F)cc4C(=O)N4CCCCC4C)c4cncc(C)c34)C2)CC1 (some centres unmarked) [Compound 317] |
| 5.86 | 9.66 | COC1CC(C)N(C(=O)c2cc(F)ccc2-n2cc(C[C@@H]3CCN(CC4CCN(C(C)=O)CC4)C3)c3c(C)cncc32)C1 (some centres unmarked) [Compound 318] |
| ~6.21 | 9.09 | CC(=O)N1CCC(CN2CC[C@@H](Cc3cn(-c4ccc(F)cc4C(=O)N4C[C@@H](O)C[C@H]4C)c4cncc(C)c34)C2)CC1 [Compound 327] |
| 8.00 | 9.89 | Cc1cncc2c1c(C[C@@H]1CCN(CC3CCN(C(=O)C(C)C)CC3)C1)cn2-c1ccc(F)cc1C(=O)N(C[C@H](C)O)C(C)C [Compound 330] |
| 7.54 | 9.93 | Cc1cncc2c1c(C[C@@H]1CCN(CC3CCN(C(=O)C(C)C)CC3)C1)cn2-c1ccc(F)cc1C(=O)N(C[C@@H](C)O)C(C)C [Compound 331] |
| 6.71 | 9.89 | Cc1cncc2c1c(CC1CCN(CC3CCN(C(=O)C(C)C)CC3)C1)cn2-c1ccc(F)cc1C(=O)N1CC(O)CC1C (centres unmarked) [Compound 332] |
| ~6.40 | 9.60 | Cc1cncc2c1c(C[C@@H]1CCN(CC3CCN(C(=O)C(C)C)CC3)C1)cn2-c1ccc(F)cc1C(=O)N1CC(O)CC1C (some centres unmarked) [Compound 333] |
| 7.74 | 9.71 | COC(=O)N1CCC(CN2CC[C@@H](Cc3cn(-c4ccc(F)cc4C(=O)N(C[C@H](C)O)C(C)C)c4cncc(C)c34)C2)CC1 [Compound 335] |
| 7.48 | 9.89 | COC(=O)N1CCC(CN2CC[C@@H](Cc3cn(-c4ccc(F)cc4C(=O)N(C[C@@H](C)O)C(C)C)c4cncc(C)c34)C2)CC1 [Compound 336] |
| 7.70 | 10.43 | Cc1cncc2c1c(C[C@@H]1CCN(CC3CCN(C(=O)C(C)(C)O)CC3)C1)cn2-c1ccc(F)cc1C(=O)N1CCC2CC21 (some centres unmarked) [Compound 341] |
| 6.97 | 9.73 | CCC1CCCN1C(=O)c1cc(F)ccc1-n1cc(C[C@@H]2CCN(CC3CCN(C(=O)C(C)(C)O)CC3)C2)c2c(C)cncc21 (some centres unmarked) [Compound 342] |
| 7.85 | ~10.24 | Cc1cncc2c1c(C[C@@H]1CCN(CC3CCN(C(=O)C(C)(C)O)CC3)C1)cn2-c1ccc(F)cc1C(=O)N1[C@H](C)CC[C@@H]1C [Compound 344] |
| < 6.00 | 8.17 | CC(=O)N1CC2CC(CN3CC[C@@H](Cc4cn(-c5ccc(F)cc5C(=O)N5CCC[C@H]5CO)c5cncc(C)c45)C3)CC(C2)C1 (some centres unmarked) [Compound 349] |
| 6.97 | 9.90 | Cc1cncc2c1c(C[C@@H]1CCN(CC3CCOCC3)C1)cn2-c1ccc(F)cc1C(=O)N1CCC[C@H]1CO [Compound 360] |
